Test results reported in patent US20180162862A1 (President and Fellows of Harvard College, priority 2015, published 2018).
Values after ≈ are worked out from the molar mass of the structure shown. Read-outs that look alike come from different tables or passages of the source.

How the values were obtained:
MSSA Newman = test: MIC test in TSB medium with MTT staining, MSSA Newman; format: cell-based, Staphylococcus aureus; conditions: Staphylococcus aureus
Protocol: MIC Test (Methicillin Susceptible Staphylococcus aureus (MSSA Newman))
Overnight cultures of MSSA Newman were grown up in TSB medium at 37° C. The cultures obtained were normalized with TSB to OD600=0.6 and diluted 100-fold. 1.5 μL of a dilution series of Example Compounds in DMSO (100×, in duplicate), and the diluted bacterial culture (150 μL) was added to wells of a sterile, clear 96 well plate and incubated at 37° C.

S. aureus ATCC 29213 = test: MIC test according to CLSI M7-A9, S. aureus ATCC 29213; format: cell-based; conditions: Staphylococcus aureus
How it was run: (§1)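 Per CLSI M7-A9, DMSO stocks diluted in cation-adjusted Mueller Hinton broth, plates incubated 24 h at 37 °C in air. MIC is the lowest concentration giving complete inhibition of visible growth, read visually and at 600 nm.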

S. aureus ATCC 43300 = test: MIC test according to CLSI M7-A9, S. aureus ATCC 43300; format: cell-based; conditions: Staphylococcus aureus
How it was run: as §1

S. aureus Newman = test: MIC test according to CLSI M7-A9, S. aureus Newman; format: cell-based; conditions: Staphylococcus aureus, CLSI M7-A9, CAMHB, 24 h (Table 3), read-out: S. aureus ATCC Newman MIC
Protocol: MIC Test (S. aureus ATCC 29213, S. aureus ATCC 43300 and S. aureus Newman)
Susceptibility testing of S. aureus ATCC 29213, ATCC 43300 and Newman was performed according to Clinical Laboratory Standard Institute (CLSI) guidelines M7-A9. Test articles were stored at room temperature prior to use, then dissolved in filtered sterile DMSO. Stock DMSO solutions were diluted further in cation-adjusted Mueller Hinton broth (CAMHB) to provide appropriate test concentrations. Cultures of S. aureus (ATCC 29213, ATCC 43300 or Newman) were added in accordance with CLSI guidelines and plates incubated at 37° C. in air for 24 h. Endpoints were determined visually (and by spectrophotometer at 600 nm) and the minimum inhibitory concentration (MIC) defined as the lowest concentration of test articles resulting in complete inhibition of visible bacterial growth. Results are detailed in Table 2 (S. aureus ATCC 29213 and ATCC 43300) and Table 3 (S. aureus ATCC 29213, ATCC 43300 and Newman).

[1] = TSB, 37° C., MTT staining after 7 h, read-out: MSSA Newman MIC at 7 h
[2] = TSB, 37° C., MTT staining after 24 h, read-out: MSSA Newman MIC at 24 h
[3] = ATCC29213, CLSI M7-A9, CAMHB, 24 h (Table 2), read-out: S. aureus ATCC 29213 MIC at 24 h
[4] = ATCC43300, CLSI M7-A9, CAMHB, 24 h (Table 2), read-out: S. aureus ATCC 43300 MIC at 24 h
[5] = ATCC29213, CLSI M7-A9, CAMHB, 24 h (Table 3), read-out: S. aureus ATCC 29213 MIC
[6] = ATCC43300, CLSI M7-A9, CAMHB, 24 h (Table 3), read-out: S. aureus ATCC 43300 MIC

SMILES	MIC (MSSA Newman; [1]) [µg/mL]	MIC (MSSA Newman; [2]) [µg/mL]	MIC (S. aureus ATCC 29213; [3]) [µg/mL]	MIC (S. aureus ATCC 43300; [4]) [µg/mL]	other results
CC(C)(C)c1ccc(-c2nc3cc(=O)[nH]n3c(=S)[nH]2)cc1 [Example 1, 2-(4-tert-butylphenyl)-4-sulfanylidene-3H,4H,6H,7H-pyrazolo[1,5-a][1,3,5]triazin-7-one]	12.5 (≈ 41.6 µM)	12.5 (≈ 41.6 µM)	16 (≈ 53.3 µM)	16 (≈ 53.3 µM)	–
Cc1cc(OCCNc2nc(-c3ccc(C(C)(C)C)cc3)nc3cc(=O)[nH]n23)ccc1Cl [Example 46, 2-(4-tert-butylphenyl)-4-{[2-(4-chloro-3-methylphenoxy)ethyl]amino}-6H,7H-pyrazolo[1,5-a][1,3,5]triazin-7-one]	12.5 (≈ 27.7 µM)	12.5 (≈ 27.7 µM)	–	–	–
CC(C)(C)c1ccc(-c2nc(N)n3[nH]c(=O)cc3n2)cc1 [Example 37, 4-amino-2-(4-tert-butylphenyl)-6H,7H-pyrazolo[1,5-a][1,3,5]triazin-7-one]	25 (≈ 88.2 µM)	–	–	–	–
CC(C)(C)c1ccc(-c2nc(NCCCCc3ccccc3)n3[nH]c(=O)cc3n2)cc1 [Example 29, 2-(4-tert-butylphenyl)-4-[(4-phenylbutyl)amino]-6H,7H-pyrazolo[1,5-a][1,3,5]triazin-7-one]	1.6 (≈ 3.85 µM)	3.1 (≈ 7.46 µM)	8 (≈ 19.3 µM)	16 (≈ 38.5 µM)	–
Cc1cc(NCCCNc2nc(-c3ccc(C(C)(C)C)cc3)nc3cc(=O)[nH]n23)ccc1Cl [Example 47, 2-(4-tert-butylphenyl)-4-({3-[(4-chloro-3-methylphenyl)amino]propyl}amino)-6H,7H-pyrazolo[1,5-a][1,3,5]triazin-7-one]	3.1 (≈ 6.67 µM)	3.1 (≈ 6.67 µM)	2 (≈ 4.3 µM)	4 (≈ 8.6 µM)	–
CNc1nc(-c2ccc(C(C)(C)C)cc2)nc2cc(=O)[nH]n12 [Example 17, 2-(4-tert-butylphenyl)-4-(methylamino)-6H,7H-pyrazolo[1,5-a][1,3,5]triazin-7-one]	50 (≈ 168 µM)	–	–	–	–
CC(C)(C)c1ccc(-c2nc(O)n3[nH]c(=O)cc3n2)cc1 [Example 38, 2-(4-tert-butylphenyl)-4-hydroxy-6H,7H-pyrazolo[1,5-a][1,3,5]triazin-7-one]	12.5 (≈ 44 µM)	12.5 (≈ 44 µM)	–	–	–
Cc1ccnc(C)c1OCCCNc1nc(-c2ccc(C(C)(C)C)cc2)nc2cc(=O)[nH]n12 [Example 53, 2-(4-tert-butylphenyl)-4-({3-[(2,4-dimethylpyridin-3-yl)oxy]propyl}amino)-6H,7H-pyrazolo[1,5-a][1,3,5]triazin-7-one]	> 100	> 100	> 64	8 (≈ 17.9 µM)	–
COc1ccc(CNc2nc(-c3ccc(C(C)(C)C)cc3)nc3cc(=O)[nH]n23)cc1 [Example 15, 2-(4-tert-butylphenyl)-4-{[(4-methoxyphenyl)methyl]amino}-6H,7H-pyrazolo[1,5-a][1,3,5]triazin-7-one]	3.1 (≈ 7.68 µM)	12.5 (≈ 31 µM)	8 (≈ 19.8 µM)	8 (≈ 19.8 µM)	–
CCCC(C)Nc1nc(-c2ccc(C(C)(C)C)cc2)nc2cc(=O)[nH]n12 (stereo not shown) [Example 28, 2-(4-tert-butylphenyl)-4-[(pentan-2-yl)amino]-6H,7H-pyrazolo[1,5-a][1,3,5]triazin-7-one]	3.1 (≈ 8.77 µM)	6.2 (≈ 17.5 µM)	16 (≈ 45.3 µM)	16 (≈ 45.3 µM)	–
Cc1cccc(OCCCNc2nc(-c3ccc(C(C)(C)C)cc3)nc3cc(=O)[nH]n23)c1C [Example 30, 2-(4-tert-butylphenyl)-4-{[3-(2,3-dimethylphenoxy)propyl]amino}-6H,7H-pyrazolo[1,5-a][1,3,5]triazin-7-one]	1.6 (≈ 3.59 µM)	6.2 (≈ 13.9 µM)	> 32	> 32	–
Cc1cc(OCCCSc2nc(-c3ccc(C(C)(C)C)cc3)nc3cc(=O)[nH]n23)ccc1Cl [Example 2, 2-(4-tert-butylphenyl)-4-{[3-(4-chloro-3-methylphenoxy)propyl]sulfanyl}-6H,7H-pyrazolo[1,5-a][1,3,5]triazin-7-one]	–	–	–	–	MIC (MSSA Newman; 7 h, read-out: MSSA Newman MIC at 7 h): > 100 µg/mL; MIC (S. aureus ATCC 29213; ATCC29213, 24 h, read-out: S. aureus ATCC 29213 MIC at 24 h): > 32 µg/mL; MIC (S. aureus ATCC 43300; ATCC43300, 24 h, read-out: S. aureus ATCC 43300 MIC at 24 h): > 32 µg/mL
CCCCNc1nc(-c2ccc(C(C)(C)C)cc2)nc2cc(=O)[nH]n12 [Example 16, 4-(butylamino)-2-(4-tert-butylphenyl)-6H,7H-pyrazolo[1,5-a][1,3,5]triazin-7-one]	6.2 (≈ 18.3 µM)	12.5 (≈ 36.8 µM)	–	–	–
CC(C)(C)c1ccc(-c2nc(NCCCOc3cnc(Cl)nc3)n3[nH]c(=O)cc3n2)cc1 [Example 52, 2-(4-tert-butylphenyl)-4-({3-[(2-chloropyrimidin-5-yl)oxy]propyl}amino)-6H,7H-pyrazolo[1,5-a][1,3,5]triazin-7-one]	12.5 (≈ 27.5 µM)	25 (≈ 55.1 µM)	> 64	> 64	–
Cc1ccc(OCCCNc2nc(-c3ccc(C(C)(C)C)cc3)nc3cc(=O)[nH]n23)cc1C [Example 49, 2-(4-tert-butylphenyl)-4-{[3-(3,4-dimethylphenoxy)propyl]amino}-6H,7H-pyrazolo[1,5-a][1,3,5]triazin-7-one]	3.1 (≈ 6.96 µM)	6.2 (≈ 13.9 µM)	32 (≈ 71.8 µM)	16 (≈ 35.9 µM)	–
COCCCNc1nc(-c2ccc(C(C)(C)C)cc2)nc2cc(=O)[nH]n12 [Example 27, 2-(4-tert-butylphenyl)-4-[(3-methoxypropyl)amino]-6H,7H-pyrazolo[1,5-a][1,3,5]triazin-7-one]	50 (≈ 141 µM)	100 (≈ 281 µM)	> 32	> 32	–
Cc1cc(OCCCNc2nc(-c3ccc(C(C)(C)C)cc3)nc3cc(=O)[nH]n23)ccc1Cl [Example 14, 2-(4-tert-butylphenyl)-4-{[3-(4-chloro-3-methylphenoxy)propyl]amino}-6H,7H-pyrazolo[1,5-a][1,3,5]triazin-7-one]	3.3 (≈ 7.08 µM)	3.3 (≈ 7.08 µM)	4 (≈ 8.58 µM)	4 (≈ 8.58 µM)	–
Cc1ccc(-c2nc(NCCCNc3ccc(Cl)c(C)c3)n3[nH]c(=O)cc3n2)cc1 [Example 68, 4-({3-[(4-chloro-3-methylphenyl)amino]propyl}amino)-2-(4-methylphenyl)-6H,7H-pyrazolo[1,5-a][1,3,5]triazin-7-one]	1.6 (≈ 3.78 µM)	3.1 (≈ 7.33 µM)	16 (≈ 37.8 µM)	8 (≈ 18.9 µM)	–
O=c1cc2nc(C34CC5CC(CC(C5)C3)C4)nc(NCCCNC3Cc4ccccc4C3)n2[nH]1 [Example 101, 2-(adamantan-1-yl)-4-({3-[(2,3-dihydro-1H-inden-2-yl)amino]propyl}amino)-6H,7H-pyrazolo[1,5-a][1,3,5]triazin-7-one]	–	–	–	–	MIC (S. aureus ATCC 29213; [5]): 8 µg/mL (≈ 17.4 µM); MIC (S. aureus ATCC 43300; [6]): 8 µg/mL (≈ 17.4 µM); MIC (S. aureus Newman): 8 µg/mL (≈ 17.4 µM)
CCCCNc1nc(-c2ccc(C)cc2)nc2cc(=O)[nH]n12 [Example 70, 4-(butylamino)-2-(4-methylphenyl)-6H,7H-pyrazolo[1,5-a][1,3,5]triazin-7-one]	> 100	> 100	–	–	–
CC(=O)c1ccc(-c2nc(NCCCNC3Cc4ccccc4C3)n3[nH]c(=O)cc3n2)cc1 [Example 103, 2-(4-acetylphenyl)-4-({3-[(2,3-dihydro-1H-inden-2-yl)amino]propyl}amino)-6H,7H-pyrazolo[1,5-a][1,3,5]triazin-7-one]	–	–	–	–	MIC (S. aureus ATCC 29213; [5]): 16 µg/mL (≈ 36.2 µM); MIC (S. aureus ATCC 43300; [6]): 8 µg/mL (≈ 18.1 µM); MIC (S. aureus Newman): 32 µg/mL (≈ 72.3 µM)
CC(C)(C)c1ccc(-c2nc3c(Cc4ccccc4)c(=O)[nH]n3c(=S)[nH]2)cc1 [Example 106, 8-benzyl-2-(4-tert-butylphenyl)-4-sulfanylidene-3H,4H,6H,7H-pyrazolo[1,5-a][1,3,5]triazin-7-one]	–	–	–	–	MIC (S. aureus ATCC 29213; [5]): 2 µg/mL (≈ 5.12 µM); MIC (S. aureus ATCC 43300; [6]): 2 µg/mL (≈ 5.12 µM); MIC (S. aureus Newman): 1 µg/mL (≈ 2.56 µM)
